We go through eight compounds from patent US11834458B2, “Anti-cancer nuclear hormone receptor-targeting compounds” (Nuvation Bio Inc., priority 2021, dated 2023).

Assay [1] concerns IEC6 cells. Kind of assay: Cell viability assay, IEC6. The format is cell-based. The settings on record: Rattus norvegicus. The procedure:
(§1) Cell viability assay: LNCap, 22Rv1, MCF7, MDAMB361, T47D, and IEC6 cells are seeded at a density of 500-2000 cells/well in 96 well plates, and a ‘T0’ (timepoint 0) was included along with the assay plate. The plates are then incubated at 37° C., 5% CO2 in a cell culture incubator overnight. On the next day, the ‘T0’ plate was assayed using CellTiterGlo (Promega, Inc) according to the manufacturer's instructions. The appropriate compounds are diluted in DMSO and added to the assay plate (final DMSO concentration of 0.1-0.2%) on the next day. The assay plates are incubated for 6 days at 37° C., 5% CO2. After the incubation period, the plates are assayed using CellTiterGlo (Promega, Inc) according to the manufacturer's instructions and luminescence was read on the EnVision plate reader. Inhibition of the tested compounds was determined by the following formula: Inhibition rate (%)=(1−(RLU compound−RLU day0)/(RLU control−RLU day0))*100%. GraphPadPrism was used to analyze the data and determine GI50/IC50 values.

The test system of assay [2] is LNCap cells. In words: Cell viability assay, LNCap. The format is cell-based. The settings on record: Homo sapiens, 144 h. The procedure: as §1
Assay [3] concerns T47D cells. Kind of assay: Cell viability assay, T47D. The format is cell-based. The settings on record: Homo sapiens, 144 h. On the procedure:
as §1

The subject of assay [4] is 22Rv1 cells. In words: Cell viability assay, 22Rv1. The assay is classed as cell-based. The settings on record: Homo sapiens. The procedure:
as §1

Assay [5] concerns the target AR (Homo sapiens (Human), UniProt P10275, T878A). In words: AR binding assay. The procedure: AR binding assay: To assess AR binding, test compound (top dose 10 μM, 4 fold serial dilution, 8 point dose response) and control (progesterone) were transferred to the assay plate. Cytosol from LnCaP cells was added to the plate, followed by addition of radiolabeled ^3H-R1881 at a final concentration of 1 nM. The plate was sealed, and the reaction was incubated at 300 rpm at 4° C. for 24 hrs. Radioligand absorption buffer (10 mM Tris-HCl, pH 7.4; 1.5 mM EDTA; 1 mM DTT; 0.25% charcoal; 0.0025% dextran) was then added to the plate, mixed, and incubated at 4° C. for 15 minutes. The plate was then centrifuged at 3000 rpm for 30 minutes at 4° C. The supernatant was transferred to the scint-tube and Tri-carb was used for scintillation counting. The data was analyzed using GraphPadPrism v5.0 and binding IC50 was determined as the concentration where 50% inhibition of radioligand binding was observed.

Assay [6] has as its target full-length androgen receptor (Homo sapiens (Human), UniProt P10275). Kind of assay: AR antagonism assay. The format is cell-based. The procedure:
AR antagonism assay: To evaluate AR antagonist activity, test compound was added to the assay plate (top dose 10 μM, 3 fold serial dilution, 10 point dose response). HEK293 cells stably expressing the full-length androgen receptor were seeded at a density of 20,000 cells/well in the assay plate. The assay plate was then incubated at room temperature for 10 minutes and at 37° C., 5% CO2 for 20 minutes. Testosterone was added to the assay plate at 1 nM final concentration and the assay plate incubated at 37° C., 5% CO2 for 20 h. After the incubation period, Steady-glo was added to the assay plate and mixed at room temperature for 20 minutes on an orbital shaker, before reading out on the EnVision plate reader.

Setting [7] is: IEC-6, 144 h, read-out: IEC-6 (IC50, nM).
Setting [8] is: LNCaP, read-out: LNCap (GI50, nM).
The mark [9] stands for this setting: T47D, read-out: T47D (GI50, nM).
[10] abbreviates: 144 h, IEC-6 cells, 6 days, CellTiterGlo, read-out: IEC-6 (IC50).
[11] abbreviates: LNCap cells, 6 days, CellTiterGlo, read-out: LNCap (GI50).

Where two headings read alike, the source gives them in different places.

Sequence of full-length androgen receptor (P10275 whole entry): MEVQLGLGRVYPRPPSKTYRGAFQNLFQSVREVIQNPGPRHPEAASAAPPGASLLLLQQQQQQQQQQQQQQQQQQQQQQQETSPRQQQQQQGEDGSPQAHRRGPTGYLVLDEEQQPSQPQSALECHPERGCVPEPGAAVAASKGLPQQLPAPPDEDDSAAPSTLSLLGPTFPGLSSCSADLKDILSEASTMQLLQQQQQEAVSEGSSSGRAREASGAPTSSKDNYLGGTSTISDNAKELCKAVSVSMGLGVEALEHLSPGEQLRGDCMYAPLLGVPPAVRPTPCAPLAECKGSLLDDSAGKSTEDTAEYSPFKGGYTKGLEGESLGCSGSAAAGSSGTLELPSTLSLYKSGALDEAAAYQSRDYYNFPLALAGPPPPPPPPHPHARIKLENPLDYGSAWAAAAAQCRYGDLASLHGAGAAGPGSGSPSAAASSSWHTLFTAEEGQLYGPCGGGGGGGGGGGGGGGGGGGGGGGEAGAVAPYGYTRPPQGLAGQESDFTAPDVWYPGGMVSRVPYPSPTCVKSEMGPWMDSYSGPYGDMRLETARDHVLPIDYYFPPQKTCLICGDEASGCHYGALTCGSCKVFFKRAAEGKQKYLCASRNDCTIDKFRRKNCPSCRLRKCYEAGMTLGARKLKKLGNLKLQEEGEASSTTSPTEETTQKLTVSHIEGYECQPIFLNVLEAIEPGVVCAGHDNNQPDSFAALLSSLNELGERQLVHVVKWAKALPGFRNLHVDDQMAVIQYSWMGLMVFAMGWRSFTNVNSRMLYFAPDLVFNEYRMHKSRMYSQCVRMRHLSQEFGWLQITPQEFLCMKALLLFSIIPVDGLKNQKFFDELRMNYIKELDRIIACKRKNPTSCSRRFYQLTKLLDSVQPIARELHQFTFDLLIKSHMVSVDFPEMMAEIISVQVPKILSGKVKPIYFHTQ
Sequence of AR (P10275 whole entry T878A): as the sequence (P10275 whole entry) above, with T878A counted along it

`CC[C@@]1(O)C(=O)OCc2c1cc1n(c2=O)Cc2cc3c(CN(C)C)c(OC(=O)N4C5CCC4CN(CCCCCCN(C)c4ccc([C@H]6C[C@@]7(C)[C@@H](CC[C@]7(OC(C)=O)C(C)=O)[C@@H]7CCC8=CC(=O)CCC8=C76)cc4)C5)ccc3nc2-1` [Compound 22, (S)-10-((Dimethylamino)methyl)-4-ethyl-4-hydroxy-3,14-dioxo-3,4,12,14-tetrahydro-1H-pyrano[3′,4′:6,7]indolizino[1,2-b]quinolin-9-yl 3-(6-((4-((8S,11R,13S,14S,17R)-17-acetoxy-17-acetyl-13-methyl-3-oxo-2,3,6,7,8,11,12,13,14,15,16,17-dodecahydro-1H-cyclopenta[a]phenanthren-11-yl)phenyl)(methyl)amino)hexyl)-3,8-diazabicyclo[3.2.1]octane-8-carboxylate]: in assay [1] (setting [7]), the IC50 is 10 to 500 nM. The GI50 in assay [2] (setting [8]) and in assay [3] (setting [9]) was 10 to 500 nM in each case.
In the case of `CC[C@@]1(O)C(=O)OCc2c1cc1n(c2=O)Cc2cc3c(CN(C)C(=O)CO[C@H]4CC[C@H]5[C@@H]6CC[C@H]7CC(=O)CC[C@]7(C)[C@H]6CC[C@]45C)c(O)ccc3nc2-1` [Compound 25, 2-(((5S,8R,9S,10S,13S,14S,17S)-10,13-Dimethyl-3-oxohexadecahydro-1H-cyclopenta[a]phenanthren-17-yl)oxy)-N—(((S)-4-ethyl-4,9-dihydroxy-3,14-dioxo-3,4,12,14-tetrahydro-1H-pyrano[3′,4′:6,7]indolizino[1,2-b]quinolin-10-yl)methyl)-N-methylacetamide], the GI50 in assay [4] (144 h, 22RV1 cells, 6 days, CellTiterGlo, read-out: 22RV1 (GI50)) was in the range of 10 to 500 nM; in assay [2] (setting [11]), 10 to 500 nM. In assay [1] (setting [10]), the IC50 is greater than 1000 nM.
With `CC[C@@]1(O)C(=O)OCc2c1cc1n(c2=O)Cc2cc3c(CN(C)C)c(OC(=O)N4C[C@H](C)N(CCCCCCN(C)c5ccc([C@H]6C[C@@]7(C)[C@@H](CC[C@]7(OC(C)=O)C(C)=O)[C@@H]7CCC8=CC(=O)CCC8=C76)cc5)C[C@H]4C)ccc3nc2-1` [Compound 24, (S)-10-((Dimethylamino)methyl)-4-ethyl-4-hydroxy-3,14-dioxo-3,4,12,14-tetrahydro-1H-pyrano[3′,4′:6,7]indolizino[1,2-b]quinolin-9-yl (2R,5S)-4-(6-((4-((8S,11R,13S,14S,17R)-17-acetoxy-17-acetyl-13-methyl-3-oxo-2,3,6,7,8,11,12,13,14,15,16,17-dodecahydro-1H-cyclopenta[a]phenanthren-11-yl)phenyl)(methyl)amino)hexyl)-2,5-dimethylpiperazine-1-carboxylate], the IC50 in assay [1] (setting [7]) is 501 to 1000 nM. In addition, the GI50 in assay [2] (setting [8]) and in assay [3] (setting [9]) was 10 to 500 nM throughout.
On to `CC[C@@]1(O)C(=O)OCc2c1cc1n(c2=O)Cc2cc3c(CN(C)C)c(OC(=O)N4C[C@@H](C)N(CCCCCCN(C)c5ccc([C@H]6C[C@@]7(C)[C@@H](CC[C@]7(OC(C)=O)C(C)=O)[C@@H]7CCC8=CC(=O)CCC8=C76)cc5)C[C@@H]4C)ccc3nc2-1` [Compound 23, (S)-10-((Dimethylamino)methyl)-4-ethyl-4-hydroxy-3,14-dioxo-3,4,12,14-tetrahydro-1H-pyrano[3′,4′:6,7]indolizino[1,2-b]quinolin-9-yl (2S,5R)-4-(6-((4-((8S,11R,13S,14S,17R)-17-acetoxy-17-acetyl-13-methyl-3-oxo-2,3,6,7,8,11,12,13,14,15,16,17-dodecahydro-1H-cyclopenta[a]phenanthren-11-yl)phenyl)(methyl)amino)hexyl)-2,5-dimethylpiperazine-1-carboxylate], for which the IC50 in assay [1] (setting [7]) lay in the range of 10 to 500 nM. Further, the GI50 in assay [2] (setting [8]) was 501 to 1000 nM; in assay [3] (setting [9]), 10 to 500 nM.
As for `CC[C@@]1(O)C(=O)OCc2c1cc1n(c2=O)Cc2cc3c(CN(C)C)c(OC4CCN(CCCCCCN(C)c5ccc([C@H]6C[C@@]7(C)C(CC[C@]7(OC(C)=O)C(C)=O)C7CCC8=CC(=O)CCC8=C76)cc5)CC4)ccc3nc2-1` (stereo partly drawn) [Compound 9, (11R,13S,17R)-17-Acetyl-11-(4-((6-(4-(((S)-10-((dimethylamino)methyl)-4-ethyl-4-hydroxy-3,14-dioxo-3,4,12,14-tetrahydro-1H-pyrano[3′,4′:6,7]indolizino[1,2-b]quinolin-9-yl)oxy)piperidin-1-yl)hexyl)(methyl)amino)phenyl)-13-methyl-3-oxo-2,3,6,7,8,11,12,13,14,15,16,17-dodecahydro-1H-cyclopenta[a]phenanthren-17-yl acetate], the IC50 was greater than 1000 nM in assay [1] (setting [10]); 10 to 500 nM in assay [5] (cytosol from LnCaP cells, 3H-R1881 1 nM, 4° C. 24 hrs, read-out: AR binding); greater than 1000 nM in assay [6]. In addition, the 50% growth inhibitory concentration (GI50) fell in the range of 501 to 1000 nM in assay [2] (setting [11]) and 10 to 500 nM in assay [3] (T47D cells, 6 days, CellTiterGlo, read-out: T47D (GI50)).
For `CCc1c2c(nc3ccc(OC(=O)N4CCN(CCCCCCN(C)c5ccc([C@H]6C[C@@]7(C)[C@@H](CC[C@]7(OC(C)=O)C(C)=O)[C@@H]7CCC8=CC(=O)CCC8=C76)cc5)CC4)cc13)-c1cc3c(c(=O)n1C2)COC(=O)[C@]3(O)CC` [Compound 4, (S)-4,11-diethyl-4-hydroxy-3,14-dioxo-3,4,12,14-tetrahydro-1H-pyrano[3′,4′:6,7]indolizino[1,2-b]quinolin-9-yl 4-(6-((4-((8S,11R,13S,14S,17R)-17-acetoxy-17-acetyl-13-methyl-3-oxo-2,3,6,7,8,11,12,13,14,15,16,17-dodecahydro-1H-cyclopenta[a]phenanthren-11-yl)phenyl)(methyl)amino)hexyl)piperazine-1-carboxylate], the GI50 in assay [2] (setting [8]) and in assay [3] (setting [9]) was 10 to 500 nM each time.
`CC[C@@]1(O)C(=O)OCc2c1cc1n(c2=O)Cc2cc3c(CN(C)C)c(OC4CCN(CCCCCCCN(C)c5ccc([C@H]6C[C@@]7(C)C(CC[C@]7(OC(C)=O)C(C)=O)C7CCC8=CC(=O)CCC8=C76)cc5)CC4)ccc3nc2-1` (stereo partly drawn) [Compound 10, (11R,13S,17R)-17-Acetyl-11-(4-((7-(4-(((S)-10-((dimethylamino)methyl)-4-ethyl-4-hydroxy-3,14-dioxo-3,4,12,14-tetrahydro-1H-pyrano[3′,4′:6,7]indolizino[1,2-b]quinolin-9-yl)oxy)piperidin-1-yl)heptyl)(methyl)amino)phenyl)-13-methyl-3-oxo-2,3,6,7,8,11,12,13,14,15,16,17-dodecahydro-1H-cyclopenta[a]phenanthren-17-yl-acetate]: the IC50 in assay [5] is 10 to 500 nM; in assay [6] it was greater than 1000 nM. The GI50 in assay [2] (setting [8]) and in assay [3] (setting [9]) was 10 to 500 nM throughout.
Turning to `CC[C@@]1(O)C(=O)OCc2c1cc1n(c2=O)Cc2cc3c(CN(C)C)c(OC(=O)N4CCN(C(=O)C5CCN(c6ccc(C(=O)N[C@H]7CC[C@H](Oc8ccc(C#N)c(Cl)c8)CC7)nn6)CC5)CC4)ccc3nc2-1` [Compound 26, (S)-10-((Dimethylamino)methyl)-4-ethyl-4-hydroxy-3,14-dioxo-3,4,12,14-tetrahydro-1H-pyrano[3′,4′:6,7]indolizino[1,2-b]quinolin-9-yl 4-(1-(6-(((1r,4r)-4-(3-chloro-4-cyanophenoxy)cyclohexyl)carbamoyl)pyridazin-3-yl)piperidine-4-carbonyl)piperazine-1-carboxylate], the GI50 in assay [4] (22Rv1, 144 h, read-out: 22RV1 (GI50, nM)) was in the range of 10 to 500 nM; in assay [2] (setting [8]), 10 to 500 nM. Also, in assay [1] (setting [7]), the IC50 was greater than 1000 nM.
